# Patent US4590271A, “2,4-diamino-5-(substituted)pyrimidines, useful as antimicrobials” (Burroughs Wellcome Co., priority 1982, dated 1986)
# Assays:
# [1] = test system: B. fragilis; test: Minimum inhibitory concentration in vitro, B. fragilis; assay type: cell-based; conditions: Bacteroides fragilis, mean of 3 Strains, read-out: Minimum Inhibitory Concentrations
# [2] = test system: bacterial; conditions: amongst the 2,4-diamino-5-benzylpyrimidines known to date; cited from earlier work
# [3] = test system: N. gonorrhoeae; test: Minimum inhibitory concentration in vitro, N. gonorrhoeae; assay type: cell-based; conditions: Neisseria gonorrhoeae, mean of 17 strains, read-out: Minimum Inhibitory Concentrations
# [4] = test system: St. faecalis CN478; test: Minimum inhibitory concentration in vitro, St. faecalis CN478; assay type: cell-based; conditions: Enterococcus faecalis, read-out: Minimum Inhibitory Concentrations
# [5] = test system: Staph. aureus CN491; test: Minimum inhibitory concentration in vitro, Staph. aureus CN491; assay type: cell-based; conditions: Staphylococcus aureus, read-out: Minimum Inhibitory Concentrations
# [6] = test system: St. pyogenes CN10; test: Minimum inhibitory concentration in vitro, St. pyogenes CN10; assay type: cell-based; conditions: Streptococcus pyogenes, read-out: Minimum Inhibitory Concentrations
# [7] = test system: Esch. coli CN314; test: Minimum inhibitory concentration in vitro, Esch. coli CN314; assay type: cell-based; conditions: Escherichia coli, read-out: Minimum Inhibitory Concentrations
# [8] = test system: St. agalactiae CN1143; test: Minimum inhibitory concentration in vitro, St. agalactiae CN1143; assay type: cell-based; conditions: Streptococcus agalactiae, read-out: Minimum Inhibitory Concentrations
MIC [1] [µg/mL],MIC [3] [µg/mL],MIC [4] [µg/mL],MIC [5] [µg/mL],MIC [6] [µg/mL],MIC [7] [µg/mL],MIC [8] [µg/mL],SMILES,general antibacterial activity [2]
25,25,0.5,0.5,5,0.5,5,"COc1cc(Cc2cnc(N)nc2N)c2c(C)c(C)oc2c1OC [Compound 1, 2,4-Diamino-5-(6,7-dimethoxy-2,3-dimethyl-4-benzofuranylmethyl)pyrimidine]",–
6.2,–,0.05,0.5,0.5,0.5,0.5,"COc1cc(Cc2cnc(N)nc2N)c2c(c1OC)OC(C)C2 (stereo not shown) [Compound 2, 2,4-Diamino-5-(2,3-dihydro-6,7-dimethoxy-2-methyl-4-benzofuranylmethyl)-pyrimidine]",–
0.6,2.8,0.05,0.05,0.05,0.5,0.05,"COc1cc(Cc2cnc(N)nc2N)c2cc(C)oc2c1OC [Compound 3, 2,4-Diamino-5-(6,7-dimethoxy-2-methyl-4-benzofuranylmethyl)pyrimidine]",–

SMILES,MIC [1] [µg/mL],MIC [3] [µg/mL],MIC [4] [µg/mL],MIC [5] [µg/mL],MIC [6] [µg/mL],MIC [7] [µg/mL],MIC [8] [µg/mL],general antibacterial activity [2]
"COc1cc(Cc2cnc(N)nc2N)cc(OC)c1OC [TMP, 2,4-Diamino-5-(3,4,5-trimethoxybenzyl)pyrimidine, reference compound]",3.1,40,0.1,0.5,0.5,0.05,0.5,most active general antibacterial agent
